Assay results as given in patent US9067894B1, “Compound, composition, and method of activating GIRK potassium channel and use of same for treating conditions of interest” (Vanderbilt University, priority 2013, dated 2015).
“Also recorded” adds a separate entry of the source.

Tests used:
[1] = molecular target: T1, GABAA receptors (α1, β2, γ2 subunit combination) (Homo sapiens, UniProt P14867+P18507+P47870); assay: Whole-cell voltage-clamp on GABAA receptors transiently transfected in HEK-293 cells; assay type: cell-based; conditions: activation or potentiation of GABA-evoked currents
T1 construct: expressed in transfected cells; host or cells: HEK-293 (transient)
T1 sequence (P14867 28-456): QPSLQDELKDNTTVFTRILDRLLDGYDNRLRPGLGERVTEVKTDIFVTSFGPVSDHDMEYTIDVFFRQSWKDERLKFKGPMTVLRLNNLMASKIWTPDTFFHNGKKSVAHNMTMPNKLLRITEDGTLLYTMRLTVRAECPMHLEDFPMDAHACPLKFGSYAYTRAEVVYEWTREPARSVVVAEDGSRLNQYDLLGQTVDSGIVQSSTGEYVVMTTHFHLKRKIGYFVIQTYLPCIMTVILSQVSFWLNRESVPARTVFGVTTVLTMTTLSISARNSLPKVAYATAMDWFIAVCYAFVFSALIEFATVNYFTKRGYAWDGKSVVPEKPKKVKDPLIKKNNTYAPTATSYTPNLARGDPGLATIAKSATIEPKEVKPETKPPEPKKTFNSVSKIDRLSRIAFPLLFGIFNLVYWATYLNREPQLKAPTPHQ
T1 sequence (P47870 25-512 limits assumed): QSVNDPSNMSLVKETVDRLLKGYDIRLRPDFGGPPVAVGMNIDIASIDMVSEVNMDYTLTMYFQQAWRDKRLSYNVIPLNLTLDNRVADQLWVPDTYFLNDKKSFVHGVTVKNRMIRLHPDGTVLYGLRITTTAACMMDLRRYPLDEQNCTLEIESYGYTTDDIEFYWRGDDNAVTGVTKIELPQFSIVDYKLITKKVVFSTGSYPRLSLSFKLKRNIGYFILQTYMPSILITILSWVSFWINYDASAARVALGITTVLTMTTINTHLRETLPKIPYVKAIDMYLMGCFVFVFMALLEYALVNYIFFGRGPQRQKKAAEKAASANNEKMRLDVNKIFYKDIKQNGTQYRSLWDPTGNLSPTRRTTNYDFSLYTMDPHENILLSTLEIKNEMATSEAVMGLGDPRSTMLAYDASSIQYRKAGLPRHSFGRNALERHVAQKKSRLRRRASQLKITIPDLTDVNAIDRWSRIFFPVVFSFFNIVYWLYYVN
T1 sequence (P18507 40-475): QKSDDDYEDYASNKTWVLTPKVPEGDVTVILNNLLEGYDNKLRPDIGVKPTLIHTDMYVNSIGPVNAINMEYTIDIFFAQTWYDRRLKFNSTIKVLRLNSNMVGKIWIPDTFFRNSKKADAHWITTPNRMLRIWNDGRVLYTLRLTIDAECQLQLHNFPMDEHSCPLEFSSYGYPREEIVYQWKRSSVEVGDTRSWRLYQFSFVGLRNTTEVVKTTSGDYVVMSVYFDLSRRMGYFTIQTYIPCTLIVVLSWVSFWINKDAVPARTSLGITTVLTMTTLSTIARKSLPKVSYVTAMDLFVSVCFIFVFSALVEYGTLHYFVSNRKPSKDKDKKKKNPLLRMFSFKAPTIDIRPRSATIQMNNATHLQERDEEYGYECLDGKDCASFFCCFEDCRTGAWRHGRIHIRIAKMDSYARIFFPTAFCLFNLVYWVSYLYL
Procedure: A single-cell suspension of HEK-293 cells stably transfected with the appropriate ion channels were plated into TC-treated 35 mm polystyrene dishes at ˜15% confluence and incubated overnight in a 5% CO2 cell culture incubator at 37° C. Whole-cell patch-clamp recordings were performed 24-72 h after plating. Borosilicate glass electrodes ([…] resistance) were filled with Intracellular Solution (130 mM KCl, 20 mM NaCl, 5 mM EGTA, 5.46 mM MgCl2, and 10 mM HEPES, pH 7.4). Whole cell currents were recorded in 20K extracellular solution at −70 mV using a Pico 1 amplifier (Tecella, Foothill Ranch, Calif.) controlled by WINWCP 4.X (University of Strathclyde, Glasgow, Scotland, UK). Signals were compensated for electrode capacitance, cellular capacitance and series resistance. Signals were filtered at 1 kHz, and digitized at 5 kHz. Solutions were applied to the cell with a Valvelink 8.2 (Automate Scientific, Berkeley, Calif.) rapid, valve-controlled perfusion system with in-house-made local superfusion manifold. […] One day after transfection, cells were plate into 35 mm polystyrene dishes, incubated and recorded as described above. […]
Voltage-clamp data were analyzed by converting current amplitudes to current density by dividing by each cell's membrane capacitance estimated from capacitance compensation. […]

Adenosine A2A = molecular target: T2, Adenosine A2A (Homo sapiens, UniProt P29274); assay: Radioligand displacement (Ricerca); assay type: binding
T2 construct: Ricerca (contract assay)
T2 sequence (P29274 whole entry): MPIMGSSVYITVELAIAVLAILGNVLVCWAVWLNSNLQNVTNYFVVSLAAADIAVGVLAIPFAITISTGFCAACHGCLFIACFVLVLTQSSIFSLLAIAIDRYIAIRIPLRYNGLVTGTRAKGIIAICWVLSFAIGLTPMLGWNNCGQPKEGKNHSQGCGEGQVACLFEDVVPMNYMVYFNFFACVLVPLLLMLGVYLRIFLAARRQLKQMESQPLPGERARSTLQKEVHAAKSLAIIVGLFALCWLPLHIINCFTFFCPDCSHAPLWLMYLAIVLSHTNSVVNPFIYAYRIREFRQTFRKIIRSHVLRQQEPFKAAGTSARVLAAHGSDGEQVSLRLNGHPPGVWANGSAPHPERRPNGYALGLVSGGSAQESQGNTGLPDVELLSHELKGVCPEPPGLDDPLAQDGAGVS

Bradykinin B2 = molecular target: T3, Bradykinin B2 (Homo sapiens, UniProt P30411); assay: Radioligand displacement (Ricerca); assay type: binding
T3 construct: Ricerca

Dopamine D2s = molecular target: T4, Dopamine D2s (Homo sapiens, UniProt P14416); assay: Radioligand displacement (Ricerca); assay type: binding
T4 construct: Ricerca

Dopamine D3 = molecular target: T5, Dopamine D3 (Homo sapiens, UniProt P35462); assay: Radioligand displacement (Ricerca); assay type: binding
T5 construct: Ricerca
T5 sequence (P35462 whole entry): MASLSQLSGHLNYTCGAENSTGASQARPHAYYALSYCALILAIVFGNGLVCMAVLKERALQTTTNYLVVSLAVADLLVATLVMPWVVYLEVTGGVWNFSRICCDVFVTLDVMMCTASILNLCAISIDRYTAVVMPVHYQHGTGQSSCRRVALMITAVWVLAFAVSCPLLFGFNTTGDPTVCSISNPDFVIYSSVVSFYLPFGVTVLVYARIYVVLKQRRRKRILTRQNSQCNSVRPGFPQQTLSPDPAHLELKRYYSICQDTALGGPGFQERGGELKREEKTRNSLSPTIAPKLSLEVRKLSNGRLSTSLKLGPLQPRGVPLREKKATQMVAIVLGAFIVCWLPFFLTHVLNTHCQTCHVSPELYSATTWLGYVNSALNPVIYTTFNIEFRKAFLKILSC

Imidazoline, I2 = assay: Radioligand displacement (Ricerca); assay type: binding, rat; conditions: 10 μM
Muscarinic M2 = molecular target: T6, Muscarinic M2 (Homo sapiens, UniProt P08172); assay: Radioligand displacement (Ricerca); assay type: binding
T6 construct: Ricerca (contract laboratory that ran the panel)
T6 sequence (P08172 whole entry): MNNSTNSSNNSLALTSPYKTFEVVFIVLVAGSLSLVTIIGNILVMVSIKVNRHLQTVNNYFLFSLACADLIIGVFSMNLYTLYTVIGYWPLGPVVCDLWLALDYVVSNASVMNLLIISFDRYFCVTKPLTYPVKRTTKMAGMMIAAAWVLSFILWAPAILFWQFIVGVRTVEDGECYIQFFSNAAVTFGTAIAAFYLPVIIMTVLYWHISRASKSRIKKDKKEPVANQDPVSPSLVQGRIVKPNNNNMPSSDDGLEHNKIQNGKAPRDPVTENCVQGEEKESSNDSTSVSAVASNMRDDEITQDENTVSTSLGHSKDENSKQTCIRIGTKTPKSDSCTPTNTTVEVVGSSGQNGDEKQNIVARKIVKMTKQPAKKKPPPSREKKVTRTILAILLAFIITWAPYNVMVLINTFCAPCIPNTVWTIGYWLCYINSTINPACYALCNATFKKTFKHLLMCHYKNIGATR

Neuropeptide Y (Y1 ) = molecular target: T7, Neuropeptide Y (Y1 ) (Homo sapiens, UniProt P25929); assay: Radioligand displacement (Ricerca); assay type: binding
T7 construct: Ricerca (contract laboratory that ran the panel)
T7 sequence (P25929 whole entry): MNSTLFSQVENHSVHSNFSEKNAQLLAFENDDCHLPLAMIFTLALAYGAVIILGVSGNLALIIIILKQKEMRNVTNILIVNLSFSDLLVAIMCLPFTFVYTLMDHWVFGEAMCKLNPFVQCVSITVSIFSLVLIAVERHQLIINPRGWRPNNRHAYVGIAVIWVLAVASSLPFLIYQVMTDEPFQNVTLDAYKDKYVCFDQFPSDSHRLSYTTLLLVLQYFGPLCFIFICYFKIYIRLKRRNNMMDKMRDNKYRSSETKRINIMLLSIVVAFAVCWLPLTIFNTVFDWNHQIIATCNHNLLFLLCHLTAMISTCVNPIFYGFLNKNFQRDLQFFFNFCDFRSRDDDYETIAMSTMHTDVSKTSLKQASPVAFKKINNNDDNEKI

Opiate (MOP) = molecular target: T8, Opiate (MOP) (Homo sapiens, UniProt P35372); assay: Radioligand displacement (Ricerca); assay type: binding
T8 construct: Ricerca (contract laboratory that ran the panel)
T8 sequence (P35372 whole entry): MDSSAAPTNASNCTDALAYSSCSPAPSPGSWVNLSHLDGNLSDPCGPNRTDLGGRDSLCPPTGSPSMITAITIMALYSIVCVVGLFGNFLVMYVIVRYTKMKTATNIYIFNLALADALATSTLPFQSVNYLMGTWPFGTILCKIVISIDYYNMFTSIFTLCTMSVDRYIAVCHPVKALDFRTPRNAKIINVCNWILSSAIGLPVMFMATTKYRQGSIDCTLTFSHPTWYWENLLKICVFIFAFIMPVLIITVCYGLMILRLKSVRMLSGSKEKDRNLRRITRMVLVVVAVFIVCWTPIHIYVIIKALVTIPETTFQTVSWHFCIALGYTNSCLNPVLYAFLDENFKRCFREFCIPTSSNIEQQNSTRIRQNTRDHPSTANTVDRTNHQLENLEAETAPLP

PAF = molecular target: T9, PAF (Homo sapiens, UniProt P25105); assay: Radioligand displacement (Ricerca); assay type: binding
T9 construct: Ricerca (contract laboratory that ran the panel)
T9 sequence (P25105 whole entry): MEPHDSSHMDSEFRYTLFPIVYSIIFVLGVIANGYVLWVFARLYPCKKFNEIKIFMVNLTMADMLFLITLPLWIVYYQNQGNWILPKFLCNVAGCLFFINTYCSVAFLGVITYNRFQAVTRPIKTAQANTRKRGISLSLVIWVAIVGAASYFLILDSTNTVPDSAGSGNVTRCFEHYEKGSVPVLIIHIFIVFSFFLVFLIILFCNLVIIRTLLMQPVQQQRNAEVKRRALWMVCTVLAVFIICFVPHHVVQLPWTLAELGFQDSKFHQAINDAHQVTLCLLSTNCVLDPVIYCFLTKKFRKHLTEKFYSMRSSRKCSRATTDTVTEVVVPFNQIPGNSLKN

Potassium channel KATP = assay: Radioligand displacement (Ricerca); assay type: binding, human; conditions: 10 μM
hERG = molecular target: T10, hERG (Homo sapiens, UniProt Q12809); assay: Radioligand displacement (Ricerca); assay type: binding
T10 construct: Ricerca (contract laboratory that ran the panel)
T10 sequence (Q12809 whole entry): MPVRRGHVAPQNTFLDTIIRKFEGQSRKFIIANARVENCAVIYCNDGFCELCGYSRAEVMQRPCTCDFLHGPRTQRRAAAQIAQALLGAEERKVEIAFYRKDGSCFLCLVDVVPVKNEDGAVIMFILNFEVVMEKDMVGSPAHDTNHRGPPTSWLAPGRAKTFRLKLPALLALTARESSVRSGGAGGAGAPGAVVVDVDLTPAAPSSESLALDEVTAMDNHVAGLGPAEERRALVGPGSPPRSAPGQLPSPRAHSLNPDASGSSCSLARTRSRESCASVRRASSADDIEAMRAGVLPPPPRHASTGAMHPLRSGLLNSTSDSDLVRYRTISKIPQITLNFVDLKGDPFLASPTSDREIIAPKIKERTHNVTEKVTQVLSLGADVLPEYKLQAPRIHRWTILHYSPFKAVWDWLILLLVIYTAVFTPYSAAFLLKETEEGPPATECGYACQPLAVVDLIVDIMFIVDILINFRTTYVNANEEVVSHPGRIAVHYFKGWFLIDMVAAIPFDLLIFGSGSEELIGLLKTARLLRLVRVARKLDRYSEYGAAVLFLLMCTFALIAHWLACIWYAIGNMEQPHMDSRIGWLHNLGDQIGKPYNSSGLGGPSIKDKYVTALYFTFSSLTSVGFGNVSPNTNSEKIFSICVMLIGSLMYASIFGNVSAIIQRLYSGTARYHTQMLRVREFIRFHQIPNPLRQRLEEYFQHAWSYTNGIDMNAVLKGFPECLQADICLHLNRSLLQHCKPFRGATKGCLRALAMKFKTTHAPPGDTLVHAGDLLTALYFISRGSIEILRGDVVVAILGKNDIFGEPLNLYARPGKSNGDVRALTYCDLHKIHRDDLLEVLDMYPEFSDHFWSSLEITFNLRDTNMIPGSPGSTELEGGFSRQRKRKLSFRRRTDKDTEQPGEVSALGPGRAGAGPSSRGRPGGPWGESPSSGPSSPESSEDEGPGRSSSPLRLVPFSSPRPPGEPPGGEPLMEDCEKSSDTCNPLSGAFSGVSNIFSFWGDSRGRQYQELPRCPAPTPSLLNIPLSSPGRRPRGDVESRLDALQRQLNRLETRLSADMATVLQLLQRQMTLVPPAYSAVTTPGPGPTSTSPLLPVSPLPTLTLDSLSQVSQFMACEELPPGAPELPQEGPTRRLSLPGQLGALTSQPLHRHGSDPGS

Cc1cc(NC(=O)Nc2ccc(F)c(F)c2)n(-c2ccccc2)n1 [VU0456810, 1-(3,4-difluorophenyl)-3-(3-methyl-1-phenyl-1H-pyrazol-5-yl)urea]
Potency [1]: failed to show any activation or potentiation; also recorded: Inactive
inhibition at 10 µM (Adenosine A2A): 12%
inhibition at 10 µM (Bradykinin B2): -1%
inhibition at 10 µM (Dopamine D2s): 16%
inhibition at 10 µM (Dopamine D3): 2%
% Inhibition (Imidazoline, I2): 20%
inhibition at 10 µM (Muscarinic M2): -17%
inhibition at 10 µM (Neuropeptide Y (Y1 )): 24%
inhibition at 10 µM (Opiate (MOP)): 21%
inhibition at 10 µM (PAF): 2%
% Inhibition (Potassium channel KATP): 2%
inhibition at 10 µM (hERG): 10%
